The record followed here is patent publication US20150119410A1, “BIOMARKERS OF RESPONSE TO NAE INHIBITORS” (MILLENNIUM PHARMACEUTICALS, INC., priority 2011, published 2015).

Common to all, as to type: cell-based
One experiment relates to KYSE-180. Put plainly: Cell line panel 1 viability screen. To be noted: KYSE-180 (oesophagus). In short, it runs like this:
(§1)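 Cells were exposed to MLN4924 at 20 nM, 200 nM and 2 μM for 72 hours. Cell number was read by fluorescence of a cell-permeant nucleic acid stain, and the triplicate mean was expressed as percentage of control versus DMSO. Sensitivity calls used viability at 2 μM.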

A further experiment deals with PANC-03-27. Put plainly: Cell line panel 1 viability screen. To be noted: PANC-03-27 (pancreas). In short, it runs like this: as §1
In the next experiment the test system is LS-174T. In words: Cell line panel 1 viability screen. Particulars: LS-174T (large_intestine). An outline of the steps:
as §1

Another experiment concerns NCl-H1975. In words: Cell line panel 1 viability screen. Particulars: NCl-H1975 (lung); 2 μM MLN4924, 72 hours; DMSO control about 1. An outline of the steps: as §1
A further experiment relates to HCT-116 TP53 −/− cells. In words: ATPlite viability assay, isogenic HCT-116 pair. How it is done: (§2) Paired isogenic HCT-116 cell lines that were either wild-type (+/+) or null (−/−) for p53 expression (HD PAR-018 and HD 104-001, respectively, Horizon Discovery Ltd) were seeded in separate 384-well plates and then treated the following day with a titration of MLN4924 triplicate, and incubated for 24, 36, 48 or 72 h, with seeding densities of 1600, 1200, 800, and 400 cells/well, respectively. Following compound incubation, viability of HCT-116 cells was assessed by ATPlite assay (Perkin Elmer) according to the manufacturer's instructions using the LEADseeker imaging system (GE Healthcare).
Background: In ATP-based viability assays light output follows the ATP content of the culture.

The subject of a further experiment is HCT-116 TP53 +/+ cells. Put plainly: ATPlite viability assay, isogenic HCT-116 pair. To be noted: Homo sapiens, HCT-116 TP53 +/+ (wild-type), 72 h, read-out: LC50 (the source's name). How it is done: as §2
In another experiment the test system is p21. Put plainly: Western blot of p21 in TP53 −/− HCT-116 cells. Particulars: TP53 −/− HCT-116 cells treated with MLN4924. On the technique in general: Immunoblotting shows a protein as a band on a membrane.
Setting [1] is: Homo sapiens, 2 μM MLN4924, 72 hours, DMSO control about 1.

The structures appear in SMILES notation.

One may read the viability as a read-out of living cells in per cent, often relative to untreated cells. Read a high viability as better survival. Turning to `NS(=O)(=O)OC[C@@H]1C[C@@H](n2ccc3c(N[C@H]4CCc5ccccc54)ncnc32)C[C@@H]1O` [MLN4924, ((1S,2S,4R)-4-{4-[(1S)-2,3-dihydro-1H-inden-1-ylamino]-7H-pyrrolo[2,3-d]pyrimidin-7-yl}-2-hydroxycyclopentyl)methyl sulphamate], the viability at 2 µM in the experiment on KYSE-180 (setting [1]) was 21.5%; in the experiment with PANC-03-27 (setting [1]), 7.24%; in the experiment on LS-174T (Homo sapiens, LS174T, 2 μM MLN4924, 72 hours, DMSO control about 1), 32.6%; in the experiment with NCl-H1975, 30.5%. Besides, the Phenotype result in the experiment on KYSE-180 (KDM6A mutant), in the experiment on PANC-03-27 (SMAD4 mutant) and in the experiment with LS-174T (KDM6A mutant) was “sensitive (median POC values of less than the median value of all POC's recorded in the panel (<0.34) indicated sensitivity)” in each case. The CC50 with HCT-116 TP53 −/− cells (Homo sapiens, HCT-116 TP53 −/− (null), 72 h, ATPlite, read-out: LC50 (the source's name)) was found to be 74 ± 5 nM; in the experiment on HCT-116 TP53 +/+ cells, 21 ± 1 nM. In addition, the “cell death at the highest drug concentrations” value in the experiment with HCT-116 TP53 −/− cells (TP53 −/− versus TP53 +/+ HCT-116, 24, 36, and 48 h) was “less cell death”. The “p21 level (Western blots)” value with p21 was “still up-regulated”.
